Each compound was assayed on HCV replicon (assay: Replicon based assay of HCV replication inhibition (NPT ELISA)). Conditions: Hepatitis C virus, Huh-7, 72 h, Table I; Huh-7 HCV replicon-containing cells, three days; read-out: Activity.
Format: cell-based, Hepatitis C virus
How it was run: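 Huh-7 cells carrying a bicistronic HCV replicon (neo, EMCV-IRES-driven NS3–NS5B) treated overnight after seeding with usually 6 concentrations, 10 to 0.03 micromolar, for three days at 37° C without G418. Replication read as NPT level by captured ELISA; matched-DMSO wells and interferon alpha as controls.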

SMILES | EC50
Cc1c(-c2csc(Nc3ccccc3)n2)sc2ncnn12 [compound 168, 4-(6-methylthiazolo[3,2-b][1,2,4]triazol-5-yl)-N-phenylthiazol-2-amine] | 1000 to 10000 nM
CCCCCc1ccc(Nc2nc(-c3ccc(F)cc3)cs2)cc1 [compound 19, 4-(4-fluorophenyl)-N-(4-pentylphenyl)thiazol-2-amine] | < 1000 nM
CCCCCOc1ccc(N(C(C)=O)c2nc(-c3ccc(F)cc3)cs2)cc1C(F)(F)F [compound 116, N-(3-(trifluoromethyl)-4-(pentyloxy)phenyl)-N-(4-(4-fluorophenyl)thiazol-2-yl)acetamide] | < 1000 nM
CCCCCOc1ccc(Nc2nc(-c3ccc(OC)cc3)cs2)cc1C(F)(F)F [compound 134, N-(3-(trifluoromethyl)-4-(pentyloxy)phenyl)-4-(4-methoxyphenyl)thiazol-2-amine] | < 1000 nM
CCCCCOc1ccc(Nc2nc(C(C)=O)c(C)s2)cc1C(F)(F)F [compound 136, 1-(2-(3-(trifluoromethyl)-4-(pentyloxy)phenylamino)-5-methylthiazol-4-yl)ethanone] | > 10000 nM
Fc1cc(Nc2nc(-c3cccnc3)cs2)ccc1N1CCC(c2ccccc2)CC1 [compound 72, N-(3-fluoro-4-(4-phenylpiperidin-1-yl)phenyl)-4-(pyridin-3-yl)thiazol-2-amine] | < 1000 nM
N#Cc1cccc(Nc2nc(-c3ccc(F)cc3)cs2)c1 [compound 55, 3-(4-(4-fluorophenyl)thiazol-2-ylamino)benzonitrile] | > 10000 nM
c1cncc(-c2csc(Nc3ccc(N4CCCCC4)cc3)n2)c1 [compound 101, N-(4-(piperidin-1-yl)phenyl)-4-(pyridin-3-yl)thiazol-2-amine] | > 10000 nM
CCCCCOc1ccc(Nc2nc(CN3CCOCC3)cs2)cc1C(F)(F)F [compound 171, N-(3-(trifluoromethyl)-4-(pentyloxy)phenyl)-4-(morpholinomethyl)thiazol-2-amine] | < 1000 nM
CCCCCOc1ccc(Nc2nc(C(=O)Nc3ccc(C(C)(C)C)cc3)cs2)cc1C(F)(F)F [compound 17, 2-(3-(trifluoromethyl)-4-(pentyloxy)phenylamino)-N-(4-tert-butylphenyl)thiazole-4-carboxamide] | > 10000 nM
CCCCCOc1ccc(Nc2nc(-c3cccc(F)c3)cs2)cn1 [compound 178, N-(4-(3-fluorophenyl)thiazol-2-yl)-6-(pentyloxy)pyridin-3-amine] | < 1000 nM

Same assay, conditions: Hepatitis C virus, Huh-7, 72 h, Table III; Huh-7 HCV replicon-containing cells, three days; read-out: Activity

SMILES | EC50
CCCCCCCCOc1ccc(Nc2nc(-c3cncc(C#N)c3)cs2)cc1C(F)(F)F [compound 654, 5-(2-(3-(trifluoromethyl)-4-(octyloxy)phenylamino)thiazol-4-yl)pyridine-3-carbonitrile] | < 1000 nM
CCCCCCCCOc1ccc(Nc2nc(-c3cnc(O)cc3C)cs2)cc1C(F)(F)F [compound 659, 5-(2-(3-(trifluoromethyl)-4-(octyloxy)phenylamino)thiazol-4-yl)-4-methylpyridin-2-ol] | < 1000 nM
CCCCCOc1ccc(Nc2nc(-c3cncc(C(=O)O)c3)cs2)cc1C(F)(F)F [compound 646, 5-(2-(3-(trifluoromethyl)-4-(pentyloxy)phenylamino)thiazol-4-yl)pyridine-3-carboxylic acid] | < 1000 nM
CCCCCOc1ccc(Nc2nc(/C=C/c3ccc(OC)cc3)cs2)cc1C(F)(F)F [compound 600, 4-(4-methoxystyryl)-N-(3-(trifluoromethyl)-4-(pentyloxy)phenyl)thiazol-2-amine] | < 1000 nM
CCCCCCCCOc1ccc(Nc2nc(-c3ccccn3)cs2)cc1C(F)(F)F [compound 587, N-(3-(trifluoromethyl)-4-(octyloxy)phenyl)-4-(pyridin-2-yl)thiazol-2-amine] | < 1000 nM
CCCCCCCCOc1ccc(Nc2nc(-c3cncc(OC)c3)cs2)cc1 [compound 657, 4-(5-methoxypyridin-3-yl)-N-(4-(octyloxy)phenyl)thiazol-2-amine] | 1000 to 10000 nM
CCCCCCCCOc1ccc(Nc2nc(-c3ccc(S(N)(=O)=O)cc3)cs2)cc1C(F)(F)F [compound 712] | < 1000 nM
CCCCCOc1ccc(Nc2nc(Cc3ccc(Cl)cc3)cs2)cc1C(F)(F)F [compound 633, 4-(4-chlorobenzyl)-N-(3-(trifluoromethyl)-4-(pentyloxy)phenyl)thiazol-2-amine] | 1000 to 10000 nM
CCCCCCCCc1ccc(Nc2nc(-c3cc4ccccc4o3)cs2)cc1 [compound 553, 4-(benzofuran-2-yl)-N-(4-octylphenyl)thiazol-2-amine] | 1000 to 10000 nM
CCCCCCCc1ccc(Nc2nc(-c3sc(-c4cnccn4)nc3C)cs2)cc1 [compound 566, N-(4-heptylphenyl)-4-(4-methyl-2-(pyrazin-2-yl)thiazol-5-yl)thiazol-2-amine] | < 1000 nM
CCCCCCCCOc1ccc(Nc2nc(-c3ccc4c(c3)NC(=O)CO4)cs2)cc1C(F)(F)F [compound 584, 6-(2-(3-(trifluoromethyl)-4-(octyloxy)phenylamino)thiazol-4-yl)-2H-benzo[b][1,4]oxazin-3(4H)-one] | < 1000 nM

Same assay, conditions: Hepatitis C virus, replicon based assay of HCV replication inhibition; Table II; read-out: Activity

SMILES | EC50
Cc1ccc(-c2csc(Nc3ccc(OCC4CCCCC4)c(F)c3)n2)cn1 [compound 508, N-(4-(cyclohexylmethoxy)-3-fluorophenyl)-4-(6-methylpyridin-3-yl)thiazol-2-amine] | < 1000 nM
COc1ccc(C2CCCCC2)cc1Nc1nc(-c2cccnc2)cs1 [compound 299, N-(5-cyclohexyl-2-methoxyphenyl)-4-(pyridin-3-yl)thiazol-2-amine] | 1000 to 10000 nM
COc1ccc(-c2csc(Nc3ccc(OCC(C)C)c(C(F)(F)F)c3)n2)cc1 [compound 249, N-(4-isobutoxy-3-(trifluoromethyl)phenyl)-4-(4-methoxyphenyl)thiazol-2-amine] | < 1000 nM
CCCCCCCOc1ccc(Nc2nc(-c3ccccc3)c(-c3ccccc3)s2)cc1 [compound 352, N-(4-(heptyloxy)phenyl)-4,5-diphenylthiazol-2-amine] | > 10000 nM
CCCCCCCCN(C)c1ccc(Nc2nc(Cc3ccccc3)cs2)cc1 [compound 493, N^1-(4-benzylthiazol-2-yl)-N^4-methyl-N^4-octylbenzene-1,4-diamine] | 1000 to 10000 nM
CCCCCCCOc1ccc(Nc2nc(-c3nc4ccccc4s3)cs2)cc1 [compound 400, 4-(benzo[d]thiazol-2-yl)-N-(4-(heptyloxy)phenyl)thiazol-2-amine] | 1000 to 10000 nM
CCCCCOc1ccc(Nc2nc(CN3CCOCC3)cs2)cc1F [compound 285, N-(3-fluoro-4-(pentyloxy)phenyl)-4-(morpholinomethyl)thiazol-2-amine] | 1000 to 10000 nM

Same assay, conditions: Hepatitis C virus, replicon based assay of HCV replication inhibition; Table IV; read-out: Activity

SMILES | EC50
O=S(=O)(Nc1ccccn1)c1ccc(Nc2nc(-c3cccnc3)cs2)cc1 [compound 911] | > 10000 nM
Cc1noc(NS(=O)(=O)c2ccc(Nc3nc(-c4cccnc4)cs3)cc2)c1C [compound 910] | > 10000 nM
c1ccc(-c2ccc(Nc3nc(-c4cccnc4)cs3)cn2)cc1 [compound 756, 6-phenyl-N-(4-(pyridin-3-yl)thiazol-2-yl)pyridin-3-amine] | 1000 to 10000 nM
FC(F)(F)Oc1ccc(Nc2nc(-c3cccnc3)cs2)cc1 [compound 885, 4-(pyridin-3-yl)-N-(4-(trifluoromethoxy)phenyl)thiazol-2-amine] | 1000 to 10000 nM
COc1ncc(-c2csc(Nc3ccc(OCCCCc4ccccc4)c(C(F)(F)F)c3)n2)cn1 [compound 828, N-(4-(4-phenylbutoxy)-3-(trifluoromethyl)phenyl)-4-(2-methoxypyrimidin-5-yl)thiazol-2-amine] | < 1000 nM
COc1ncc(-c2csc(Nc3ccc(C(=O)N4CCC5CCCCC5C4)c(C(F)(F)F)c3)n2)cn1 (stereo not shown) [compound 778, (4-(4-(2-methoxypyrimidin-5-yl)thiazol-2-ylamino)-2-(trifluoromethyl)phenyl) (octahydroisoquinolin-2(1H)-yl)methanone] | 1000 to 10000 nM
CCCCCCCN(C)Cc1ccc(Nc2nc(-c3cccnc3)cs2)cc1C(F)(F)F [compound 833, N-(4-((heptyl(methyl)amino)methyl)-3-(trifluoromethyl)phenyl)-4-(pyridin-3-yl)thiazol-2-amine] | < 1000 nM
O=C(O)Cc1ccc(-c2csc(Nc3ccc(OCCCC4CCCC4)c(C(F)(F)F)c3)n2)s1 [compound 850, 2-(5-(2-(4-(3-cyclopentylpropoxy)-3-(trifluoromethyl)phenylamino)thiazol-4-yl)thiophen-2-yl)acetic acid] | < 1000 nM
CCCCCCCCOc1ccc(Nc2nc(-c3ccc(OC)nc3)cs2)cc1C(F)(F)F [compound 734, N-(3-(trifluoromethyl)-4-(octyloxy)phenyl)-4-(6-methoxypyridin-3-yl)thiazol-2-amine] | < 1000 nM
Cc1ccc(CCCCOc2ccc(Nc3nc(-c4cccnc4)cs3)cc2C(F)(F)F)cc1 [compound 805, N-(4-(4-p-tolylbutoxy)-3-(trifluoromethyl)phenyl)-4-(pyridin-3-yl)thiazol-2-amine] | 1000 to 10000 nM
Fc1ccc(C(F)(F)F)cc1Nc1nc(-c2cccnc2)cs1 [compound 888, N-(2-fluoro-5-(trifluoromethyl)phenyl)-4-(pyridin-3-yl)thiazol-2-amine] | 1000 to 10000 nM
Cc1cc(Nc2nc(-c3cccnc3)cs2)ccc1OCCCCc1ccccc1 [compound 936, N-(4-(4-phenylbutoxy)-3-methylphenyl)-4-(pyridin-3-yl)thiazol-2-amine] | < 1000 nM
O=C(O)Cc1ccc(-c2csc(Nc3ccc(OCCCCc4ccccc4)c(F)c3)n2)s1 [compound 929, 2-(5-(2-(4-(4-phenylbutoxy)-3-fluorophenylamino)thiazol-4-yl)thiophen-2-yl)acetic acid] | < 1000 nM
OCCc1ccc(-c2csc(Nc3ccc(OCC4CCCCC4)c(F)c3)n2)cc1 [compound 724, 2-(4-(2-(4-(cyclohexylmethoxy)-3-fluorophenylamino)thiazol-4-yl)phenyl)ethanol] | 1000 to 10000 nM

Source: patent US8088806B2 (Achillion Pharmaceuticals, Inc., priority 2005, dated 2012)
